# Experimental data taken from article PMC11009276, “Design, synthesis, biological assessment and molecular modeling studies of novel imidazothiazole-thiazolidinone hybrids as potential anticancer and anti-inflammatory agents” (Scientific Reports, 2024).
# Like-named read-outs stand apart in the source and are kept apart here.
# Tests used:
# A549 cells [1] = test: DAPI nuclear staining; format: cell-based, human; conditions: IC50 dose, 48 h
# Procedure: A549 cells were treated with compound 4a, 4b, 4c and morphological changes were observed after nuclear staining with 4′,6‐diamidino‐2‐phenylindole (DAPI).
# Cellular nuclear morphology was evaluated by fluorescence microscopy following DAPI staining. […] After incubation, the cells were again gently washed with PBS and the coverslips were mounted on sterile slides using a DPX mounting medium. The prepared slides were observed under a fluorescence microscope (Nikon) having a blue or cyan filter at × 40 magnification.
# A549 cells [2] = test: AO/EB dual staining apoptosis assay; format: cell-based, human; conditions: vs control
# Procedure: An early and late apoptotic along with necrotic cells were also observed in active compounds (4a-c) treated A549 cells (Fig. 9b).
# A549 cell lines were cultured in six-well plates at 4 × 10^4 cells/well and then these cells were treated with 1.56 and 12.5 μg mL^−1 of […] for 48 h respectively. Further, Cells were harvested and stained with AO-EtBr dye mix (1:1 v/v from 100 μg mL^−1 in PBS) and studied using a fluorescent microscope.
# [3] = tested on: gastric mucosa tissue of rats; test: Lipid peroxidation in gastric mucosa; format: in vivo, rat; conditions: oral 0.0942 mmol/kg
# Procedure: The compounds screened for ulcerogenic potential were also analysed for lipid peroxidation. Lipid peroxidation is measured as nmolMDA/100 mg of gastric mucosa tissue. […] Thus, it was concluded that protection of gastric mucosa might be related to the inhibition of lipid peroxidation.
# Lipid peroxidation in the gastric mucosa was determined using the reported method by Ohkawa H. et al.[61]. The gastric mucosa of the glandular area was scraped off using glass slides after the stomach had been examined for ulcers. Gastric mucosa was weighed (100 mg) and homogenised in 1.8 cm^3 of ice-cold solution of KCl (1.15%). The homogenate is further added with 0.2 cm^3 of 8.1% sodium dodecyl sulphate (SDS), 1.5 cm^3 of acetate buffer, and 1.5 cm^3 of 0.8% thiobarbituric acid. After adding all buffers, the mixture was kept for incubation for 60 min over water bath, maintaining the temperature of the water bath at 95 °C. Later, the mixture was allowed to cool and then extracted with a freshly prepared mixture of n-butanol and pyridine (15:1 v/v), the organic layer obtained was centrifuged at 3000 rpm for about 10 min. The organic layer was separated out and visualised on UV–visible spectrophotometer. Concentration was measured using the following formula: Concentration=Absorbance×volume×109÷1.56×10^5×1000
# Results obtained were expressed as nmol MDA/100 mg tissue and extinction coefficient (1.56 × 10^5) cm^-1 M^-1.
# [4] = tested on: HCT116 human colorectal cancer cell line; test: MTT cytotoxicity assay, HCT116; conditions: HCT-116, 72 h, read-out: IC50 (µM) (Mean ± SD) HCT116
# Procedure: (§1) All the synthesized imidazothiazole derivatives linked with thiazolidinone moiety (4a-g and 5a-d, Fig. 4) were evaluated for their in- vitro anticancer activities against three selected human cancer cell lines namely non-small lung (A549), breast (MCF7) and colorectal (HCT116) and one normal human embryonic kidney cell line (HEK293) using the 3‐(4,5‐Dimethylthiazol‐2‐yl)-2,5‐Diphenyltetrazolium Bromide (MTT) assay method. […] Compounds were tested against selected cancer cell lines namely A549 (Lung), MCF-7(Breast) HCT116 (Colon), normal human embryonic kidney cell line (HEK293) and procured from National Centre for Cell Science Complex (NCCS) Pune University, India. Into a 96 well plate, cells were seeded into each well (3 × 10^3 cells/ per well), the plate were incubated for 24 h, after that the culture medium was discarded and replaced with fresh medium along with our newly synthesized test compounds in different concentration (10, 20, 40 and 80 µM) followed by incubation for 72 h. […] Finally, each well is treated with DMSO (100 µL) and swirled to dissolve the dark crystals of formazan. ELISA reader was used to measure the absorbance at 570 nm. The experiment was repeated three times; Graph pad prism and excel are used to calculate the IC50 values[51].
# [5] = tested on: HEK293 human embryonic kidney cell line; test: MTT cytotoxicity assay, normal cell line HEK293; format: cell-based; conditions: HEK293, MTT, 72 h, normal cell line, read-out: IC50 (Mean ± SD) HEK293
# Procedure: All the synthesized imidazothiazole derivatives linked with thiazolidinone moiety (4a-g and 5a-d, Fig. 4) were evaluated for their in- vitro anticancer activities against three selected human cancer cell lines namely non-small lung (A549), breast (MCF7) and colorectal (HCT116) and one normal human embryonic kidney cell line (HEK293) using the 3‐(4,5‐Dimethylthiazol‐2‐yl)-2,5‐Diphenyltetrazolium Bromide (MTT) assay method. […]. […].
# Cytotoxicity study of the newly synthesized derivatives 4a-g and 5a-d was performed by MTT colorimetric assay method. […] Compounds were tested against selected cancer cell lines namely A549 (Lung), MCF-7(Breast) HCT116 (Colon), normal human embryonic kidney cell line (HEK293) and procured from National Centre for Cell Science Complex (NCCS) Pune University, India. Into a 96 well plate, cells were seeded into each well (3 × 10^3 cells/ per well), the plate were incubated for 24 h, after that the culture medium was discarded and replaced with fresh medium along with our newly synthesized test compounds in different concentration (10, 20, 40 and 80 µM) followed by incubation for 72 h. Further, the media of each well of the plates were aspirated with the addition of 100 µL MTT solution followed by incubation for the next 5 h at 37 °C. Finally, each well is treated with DMSO (100 µL) and swirled to dissolve the dark crystals of formazan. ELISA reader was used to measure the absorbance at 570 nm. The experiment was repeated three times; Graph pad prism and excel are used to calculate the IC50 values.
# [6] = target: Bovine serum albumin (BSA) (Bos taurus, UniProt P02769); test: BSA (protein albumin) denaturation inhibition assay; conditions: for BSA denaturation inhibition assay Mean absorbance ± SEM: 100 μg/mL, 660 nm
# Bovine serum albumin (BSA), sequence (P02769 25-607): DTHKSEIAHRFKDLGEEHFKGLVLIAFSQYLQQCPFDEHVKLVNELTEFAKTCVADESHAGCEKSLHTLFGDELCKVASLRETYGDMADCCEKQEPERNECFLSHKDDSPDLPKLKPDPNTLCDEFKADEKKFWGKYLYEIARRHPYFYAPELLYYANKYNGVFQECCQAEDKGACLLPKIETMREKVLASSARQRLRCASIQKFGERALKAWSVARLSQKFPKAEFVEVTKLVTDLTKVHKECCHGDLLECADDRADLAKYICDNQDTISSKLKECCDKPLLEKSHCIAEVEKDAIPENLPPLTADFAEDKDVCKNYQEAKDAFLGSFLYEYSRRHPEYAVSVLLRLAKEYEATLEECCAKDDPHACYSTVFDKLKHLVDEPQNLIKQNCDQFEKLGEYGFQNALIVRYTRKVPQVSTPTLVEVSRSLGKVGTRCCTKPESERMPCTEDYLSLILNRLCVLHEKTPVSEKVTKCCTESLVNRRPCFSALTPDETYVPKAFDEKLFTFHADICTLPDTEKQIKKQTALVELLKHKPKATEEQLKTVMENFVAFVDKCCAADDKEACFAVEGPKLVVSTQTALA
# Procedure: All the synthesized compounds were evaluated for anti-inflammatory activity by the inhibition of the albumin denaturation technique. […] All the test solutions (1 mL, 100 μg/mL) were then mixed with 1 mL of albumin solution (1%) and phosphate buffer saline and then incubated for around 15 min at 27 ± 1 °C. Further, the denaturation of protein was induced by keeping the reaction mixture on the water bath for 10 min and maintaining the temperature at 60 °C. Once the solution gets cooled, the turbidity was measured using UV–Visible spectrophotometer at 660 nm.
# [7] = tested on: MCF7 human breast cancer cell line; test: MTT cytotoxicity assay, MCF7; conditions: MCF7, 72 h, read-out: IC50 (µM) (Mean ± SD) MCF7
# Procedure: as §1
# [8] = tested on: A549 (Lung) cancer cell line; test: MTT cytotoxicity assay, A549; conditions: Homo sapiens, A549, 72 h, read-out: IC50 (µM) (Mean ± SD) A549
# Procedure: as §1
# EGFR kinase = EGFR kinase (Homo sapiens, UniProt P00533); test: In vitro EGFR kinase inhibitory assay (ELISA, phospho-EGFR in A549 cell lysates)
# EGFR kinase, sequence (P00533 25-1210): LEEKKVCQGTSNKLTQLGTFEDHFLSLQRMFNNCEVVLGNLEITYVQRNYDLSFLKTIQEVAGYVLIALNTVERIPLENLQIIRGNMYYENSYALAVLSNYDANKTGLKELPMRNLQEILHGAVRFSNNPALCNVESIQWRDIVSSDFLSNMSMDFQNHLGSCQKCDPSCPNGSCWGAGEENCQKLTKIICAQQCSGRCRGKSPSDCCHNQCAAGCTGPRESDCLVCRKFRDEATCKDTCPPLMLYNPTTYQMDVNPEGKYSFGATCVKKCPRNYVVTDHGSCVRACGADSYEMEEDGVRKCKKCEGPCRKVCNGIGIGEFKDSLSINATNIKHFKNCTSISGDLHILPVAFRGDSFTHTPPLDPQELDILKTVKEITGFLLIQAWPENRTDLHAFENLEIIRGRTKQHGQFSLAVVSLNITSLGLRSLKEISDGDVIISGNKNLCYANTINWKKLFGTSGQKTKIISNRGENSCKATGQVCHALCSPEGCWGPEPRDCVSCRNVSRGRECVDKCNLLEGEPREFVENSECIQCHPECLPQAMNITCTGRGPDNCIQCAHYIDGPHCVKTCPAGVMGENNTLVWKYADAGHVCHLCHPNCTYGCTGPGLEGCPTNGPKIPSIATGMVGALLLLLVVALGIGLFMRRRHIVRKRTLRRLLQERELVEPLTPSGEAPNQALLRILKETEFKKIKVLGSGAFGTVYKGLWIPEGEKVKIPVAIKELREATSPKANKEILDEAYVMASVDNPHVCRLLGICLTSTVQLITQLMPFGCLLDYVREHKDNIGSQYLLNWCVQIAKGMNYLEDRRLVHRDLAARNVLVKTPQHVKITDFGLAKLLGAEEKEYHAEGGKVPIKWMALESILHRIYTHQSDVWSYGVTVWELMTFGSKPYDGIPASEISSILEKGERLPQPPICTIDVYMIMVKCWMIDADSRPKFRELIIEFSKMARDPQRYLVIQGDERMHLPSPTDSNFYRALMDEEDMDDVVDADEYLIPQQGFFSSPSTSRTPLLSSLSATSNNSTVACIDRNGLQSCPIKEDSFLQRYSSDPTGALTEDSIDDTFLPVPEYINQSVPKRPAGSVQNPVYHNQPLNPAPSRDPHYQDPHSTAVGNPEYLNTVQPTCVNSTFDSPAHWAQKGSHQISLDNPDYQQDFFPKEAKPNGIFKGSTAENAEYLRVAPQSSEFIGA
# Procedure: For all the synthesized compounds, the overall methodology of a spectrophotometric assay for the inhibition of EGFR tyrosine kinase activity was evaluated in human A549 cells, which expressed high levels of EGFR protein. […] Cells were then washed with cold PBS, lysed in 0.2 ml/well of HNTG buffer (50 mM HEPES [(4‐(2‐hydroxyethyl)‐piperazineethanesulfonic acid; pH 7.5], 150 mM NaCl, 1.5 mM MgCl, 10% glycerol, 1% Triton X‐100, 0.5 mM sodium fluoride, 2 g/ml aprotinin, 2 g/ml pepstatin A, 1 mM sodium orthovanadate, 2 g/ml leupeptin, 1 mM phenyl methyl sulfonyl fluoride) for 10 min, and the lysates were collected as the supernatant fraction after a 12‐min centrifugation at 15,000 g. The specific EGFR concentration was measured by ELISA assay. Briefly, the wells of ELISA plates were coated with supernatant fraction and incubated at 4 °C overnight After washing three times with buffer (20 mM PBS, pH 7.2 containing 0.05% Tween‐20), the wells were blocked with 1% BSA for 2–3 h at room temperature. Further, the plate was washed and then mouse serum at 1,000‐fold dilution was added, followed by washing and incubation with phospho‐EGFR antibody (Invitrogen) at 4 °C overnight. The wells were washed and incubated with substrate solution (o‐phenylenediamine dihydrochloride), for 30 min, and the absorbance read on an ELISA plate reader at 490 nm[52]. %Inhibition=mean OD of untreated group-mean OD of treated group/mean OD of untreated group)×100.
# [9] = tested on: carrageenan-induced rat hind paw edema; test: Carrageenan-induced rat paw edema inhibition assay; format: in vivo; conditions: after 4 h; for % inhibition (paw edema) / Increase in Paw volume SEM: oral 0.0314 mmol/kg; for Increase in Paw volume SEM: n = 6; for Activity relative to standard drug: relative to diclofenac sodium
# Procedure: The anti-inflammatory efficacy of the newly synthesised compounds was assessed using a carrageenan-induced rat hind paw edema technique The animals were divided into groups of six at random, fasted for 24 h before to the experiment, and given free access to water. 0.5% CMC solution was given to the control group only. […] One hour after the administration of the test compounds and the reference drug, 0.1 mL of a 1% carrageenan solution in saline was subcutaneously injected into the subplantar area of the right hind paw of each rat. The right hind paw volume was measured using a Digital Plethysmometer PLM-01 Plus (Orchid Scientifics and Innovatives India Pvt. Ltd., Mumbai, India) at 3 and 4 h after carrageenan therapy. The following calculation was used to compute the percent edema inhibition from the mean effect in the treated and control animals: Percent edema inhibition=Vc-Vt/Vc×100 where Vc denotes the mean increase in paw volume in the control group of rats and Vt denotes the mean increase in paw volume in rats treated with test chemicals. After a 15-day washout period, the same group of rats utilised for the anti-inflammatory activity were employed for the ulcerogenic activity.
# [10] = read-out: BSA denaturation inhibition assay % inhibition of denaturation
"inhibition at 100 µg/mL ([6]; read-out: BSA denaturation inhibition assay % inhibition of denaturation, 100 μg/mL)",SMILES,Nuclear morphological change (DAPI) (A549 cells [1]),Apoptotic cells (AO/EB dual staining) (A549 cells [2]),Lipid peroxidation [3],IC50 [4],IC50 [5],IC50 [7],IC50 [8],IC50 (EGFR kinase),% inhibition (paw edema) [9],Increase in Paw volume SEM [9],Activity relative to standard drug [9],BSA denaturation inhibition assay Mean absorbance ± SEM [6],"inhibition at 100 µg/mL [6, 10]"
82.1%,"CC1SC(c2c(-c3ccccc3)nc3sccn23)N(c2ccc(F)cc2)C1=O (centres unmarked) [Compound 4a, 3-(4-Fluorophenyl)-5-methyl-2-(6-phenylimidazo[2,1-b]thiazol-5-yl) thiazolidin-4-one]",chromatin condensation and nuclear fragmentation and margination of nucleus,number of apoptotic cells enhanced,5.98 ± 0.114 Nmol MDA/100 mg tissue,23.7 ± 0.85 µM,147 ± 4.3 µM,22.8 ± 5.5 µM,22.5 ± 2.04 µM,28.6 ± 1.96 µM,79.45%,0.141 ± 0.025,98.91,,
,"CC1SC(c2c(-c3ccccc3)nc3sccn23)N(c2ccc(Cl)cc2)C1=O (centres unmarked) [Compound 4b, 3-(4-Chlorophenyl)-5-methyl-2-(6-phenylimidazo[2,1-b]thiazol-5-yl) thiazolidin-4-one]",chromatin condensation and nuclear fragmentation and margination of nucleus,number of apoptotic cells enhanced,4.12 ± 0.159 Nmol MDA/100 mg tissue,45 ± 1.02 µM,101 ± 3.41 µM,29.2 ± 7.1 µM,21.1 ± 1.04 µM,24.3 ± 1.73 µM,81.34%,0.128 ± 0.018,101.27,0.329 ± 0.001,84.9%
,"CC1SC(c2c(-c3ccccc3)nc3sccn23)N(c2ccc(Br)cc2)C1=O (centres unmarked) [Compound 4c, 3-(4-Bromophenyl)-5-methyl-2-(6-phenylimidazo[2,1-b]thiazol-5-yl) thiazolidin-4-one]",chromatin condensation and nuclear fragmentation and margination of nucleus,number of apoptotic cells enhanced,5.37 ± 0.060 Nmol MDA/100 mg tissue,23.2 ± 1.89 µM,96.4 ± 1.79 µM,18.7 ± 0.88 µM,10.7 ± 0.4 µM,18.4 ± 1.25 µM,80.17%,0.136 ± 0.014,99.82,0.332 ± 0.006,83.6%
